Reference: the kinase profiling compilation of Christmann-Franck et al. (2016)

Tests used:
Assay in all cases: KINOMEscan competition binding
Details in all cases: compound 10.0 µM
PIK3CB (human) = PIK3CB (human) (UniProt P42338)
ROCK1 (human) = ROCK1 (human) (UniProt Q13464)
TBK1 (human) = TBK1 (human) (UniProt Q9UHD2)
GRK7 (human) = GRK7 (human) (UniProt Q8WTQ7)
EPHA2 (human) = EPHA2 (human) (UniProt P29317)
RPS6KA6 KD2 (human) = RPS6KA6 KD2 (human) (UniProt Q9UK32)
SNRK (human) = SNRK (human) (UniProt Q9NRH2)
ULK1 (human) = ULK1 (human) (UniProt O75385)
STK32C (human) = STK32C (human) (UniProt Q86UX6)
MAP2K7 (human) = MAP2K7 (human) (UniProt O14733)
PDGFRB (human) = PDGFRB (human) (UniProt P09619)
TTK (human) = TTK (human) (UniProt P33981)
EPHA7 (human) = EPHA7 (human) (UniProt Q15375)
MAP2K5 (human) = MAP2K5 (human) (UniProt Q13163)
LATS2 (human) = LATS2 (human) (UniProt Q9NRM7)
STK16 (human) = STK16 (human) (UniProt O75716)
MAP2K4 (human) = MAP2K4 (human) (UniProt P45985)
ULK2 (human) = ULK2 (human) (UniProt Q8IYT8)
PHKG1 (human) = PHKG1 (human) (UniProt Q16816)
BRAF (human) = BRAF (human) (UniProt P15056)
TEC (human) = TEC (human) (UniProt P42680)
[1] = tested on: FLT3 (human), P36888 [R834Q]
PIK3C2B (human) = PIK3C2B (human) (UniProt O00750)
PIP5K1A (human) = PIP5K1A (human) (UniProt Q99755)
CPK1 (P.falciparum) = tested on: CPK1 (P.falciparum)
TNNI3K (human) = TNNI3K (human) (UniProt Q59H18)
ACVRL1 (human) = ACVRL1 (human) (UniProt P37023)
AKT3 (human) = AKT3 (human) (UniProt Q9Y243)
LATS1 (human) = LATS1 (human) (UniProt O95835)
ABL2 (human) = ABL2 (human) (UniProt P42684)
DCLK3 (human) = DCLK3 (human) (UniProt Q9C098)
NUAK2 (human) = NUAK2 (human) (UniProt Q9H093)
MAP3K11 (human) = MAP3K11 (human) (UniProt Q16584)
RPS6KA4 KD1 (human) = RPS6KA4 KD1 (human) (UniProt O75676)
DSTYK (human) = DSTYK (human) (UniProt Q6XUX3)
EPHA5 (human) = EPHA5 (human) (UniProt P54756)
DYRK2 (human) = DYRK2 (human) (UniProt Q92630)
EPHA1 (human) = EPHA1 (human) (UniProt P21709)
CDC42BPA (human) = CDC42BPA (human) (UniProt Q5VT25)
PKMYT1 (human) = PKMYT1 (human) (UniProt Q99640)

Chain of MAP2K4 (human) (P45985 whole entry, looked up): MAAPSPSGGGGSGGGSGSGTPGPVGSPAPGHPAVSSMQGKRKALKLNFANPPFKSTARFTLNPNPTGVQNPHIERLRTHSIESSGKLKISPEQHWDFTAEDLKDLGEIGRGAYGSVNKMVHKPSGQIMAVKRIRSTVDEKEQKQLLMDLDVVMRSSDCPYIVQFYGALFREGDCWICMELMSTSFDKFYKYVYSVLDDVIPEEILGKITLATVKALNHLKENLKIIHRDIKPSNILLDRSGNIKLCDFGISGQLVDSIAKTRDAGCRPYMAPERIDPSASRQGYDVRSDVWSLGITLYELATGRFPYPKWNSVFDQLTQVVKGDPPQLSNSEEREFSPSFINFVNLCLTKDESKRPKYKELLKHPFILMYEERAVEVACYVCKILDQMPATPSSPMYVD
Chain of TEC (human) (P42680 whole entry, looked up): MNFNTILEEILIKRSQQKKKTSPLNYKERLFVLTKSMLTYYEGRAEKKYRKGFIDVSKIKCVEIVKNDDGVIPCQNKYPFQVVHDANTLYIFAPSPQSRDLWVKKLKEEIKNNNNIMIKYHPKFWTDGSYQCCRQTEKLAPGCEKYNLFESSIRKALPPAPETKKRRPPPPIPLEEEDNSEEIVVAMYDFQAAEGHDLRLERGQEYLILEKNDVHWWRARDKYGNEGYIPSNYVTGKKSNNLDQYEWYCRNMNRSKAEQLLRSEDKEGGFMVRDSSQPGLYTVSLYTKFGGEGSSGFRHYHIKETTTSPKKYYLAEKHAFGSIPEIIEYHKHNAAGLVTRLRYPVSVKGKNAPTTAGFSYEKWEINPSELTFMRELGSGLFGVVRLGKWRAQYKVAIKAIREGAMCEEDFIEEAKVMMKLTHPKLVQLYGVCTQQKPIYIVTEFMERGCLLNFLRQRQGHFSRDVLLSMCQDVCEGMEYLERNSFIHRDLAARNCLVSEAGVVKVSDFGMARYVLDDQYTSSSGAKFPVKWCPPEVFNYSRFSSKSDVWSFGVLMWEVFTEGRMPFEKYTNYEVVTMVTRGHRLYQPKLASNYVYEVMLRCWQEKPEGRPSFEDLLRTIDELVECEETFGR
Chain of BRAF (human) (P15056 whole entry, looked up): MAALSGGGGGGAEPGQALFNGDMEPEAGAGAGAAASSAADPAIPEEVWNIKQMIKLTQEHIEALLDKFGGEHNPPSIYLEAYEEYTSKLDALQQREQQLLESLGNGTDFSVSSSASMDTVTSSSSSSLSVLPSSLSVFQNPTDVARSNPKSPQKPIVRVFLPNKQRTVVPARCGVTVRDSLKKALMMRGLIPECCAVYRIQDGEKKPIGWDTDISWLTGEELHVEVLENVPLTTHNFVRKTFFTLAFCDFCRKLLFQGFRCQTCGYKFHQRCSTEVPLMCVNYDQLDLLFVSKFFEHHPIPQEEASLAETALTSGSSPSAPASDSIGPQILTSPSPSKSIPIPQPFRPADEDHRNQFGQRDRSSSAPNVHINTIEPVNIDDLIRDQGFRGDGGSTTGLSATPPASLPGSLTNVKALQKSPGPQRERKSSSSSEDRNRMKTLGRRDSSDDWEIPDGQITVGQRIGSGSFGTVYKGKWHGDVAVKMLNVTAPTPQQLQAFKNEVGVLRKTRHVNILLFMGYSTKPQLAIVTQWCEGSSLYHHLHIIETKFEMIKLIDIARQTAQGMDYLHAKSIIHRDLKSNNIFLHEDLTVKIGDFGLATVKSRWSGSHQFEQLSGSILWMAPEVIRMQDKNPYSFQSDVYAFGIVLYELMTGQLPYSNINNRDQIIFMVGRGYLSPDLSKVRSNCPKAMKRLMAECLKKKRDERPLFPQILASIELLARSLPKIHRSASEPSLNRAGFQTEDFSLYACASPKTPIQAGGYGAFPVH
Chain of SNRK (human) (Q9NRH2 whole entry, looked up): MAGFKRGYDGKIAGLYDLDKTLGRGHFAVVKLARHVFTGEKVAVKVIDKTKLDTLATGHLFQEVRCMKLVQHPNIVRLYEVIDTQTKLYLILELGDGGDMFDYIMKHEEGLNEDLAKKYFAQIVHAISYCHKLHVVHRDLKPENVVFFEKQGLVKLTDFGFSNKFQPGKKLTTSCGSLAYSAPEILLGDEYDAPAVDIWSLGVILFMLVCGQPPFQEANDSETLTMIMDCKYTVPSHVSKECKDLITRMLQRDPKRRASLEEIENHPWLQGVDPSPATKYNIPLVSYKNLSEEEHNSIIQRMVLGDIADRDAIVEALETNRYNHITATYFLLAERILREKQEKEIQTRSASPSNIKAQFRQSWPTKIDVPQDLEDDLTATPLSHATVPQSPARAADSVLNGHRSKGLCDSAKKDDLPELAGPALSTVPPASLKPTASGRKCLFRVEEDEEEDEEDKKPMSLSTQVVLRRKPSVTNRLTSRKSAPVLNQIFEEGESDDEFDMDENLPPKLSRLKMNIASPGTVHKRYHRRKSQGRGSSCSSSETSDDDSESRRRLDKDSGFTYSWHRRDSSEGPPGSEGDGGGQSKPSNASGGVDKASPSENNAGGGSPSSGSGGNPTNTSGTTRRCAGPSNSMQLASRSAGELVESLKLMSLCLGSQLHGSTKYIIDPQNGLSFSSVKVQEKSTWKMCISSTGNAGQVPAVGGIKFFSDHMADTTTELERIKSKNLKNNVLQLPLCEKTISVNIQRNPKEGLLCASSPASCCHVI
Chain of RPS6KA4 KD1 (human) (O75676 whole entry, looked up): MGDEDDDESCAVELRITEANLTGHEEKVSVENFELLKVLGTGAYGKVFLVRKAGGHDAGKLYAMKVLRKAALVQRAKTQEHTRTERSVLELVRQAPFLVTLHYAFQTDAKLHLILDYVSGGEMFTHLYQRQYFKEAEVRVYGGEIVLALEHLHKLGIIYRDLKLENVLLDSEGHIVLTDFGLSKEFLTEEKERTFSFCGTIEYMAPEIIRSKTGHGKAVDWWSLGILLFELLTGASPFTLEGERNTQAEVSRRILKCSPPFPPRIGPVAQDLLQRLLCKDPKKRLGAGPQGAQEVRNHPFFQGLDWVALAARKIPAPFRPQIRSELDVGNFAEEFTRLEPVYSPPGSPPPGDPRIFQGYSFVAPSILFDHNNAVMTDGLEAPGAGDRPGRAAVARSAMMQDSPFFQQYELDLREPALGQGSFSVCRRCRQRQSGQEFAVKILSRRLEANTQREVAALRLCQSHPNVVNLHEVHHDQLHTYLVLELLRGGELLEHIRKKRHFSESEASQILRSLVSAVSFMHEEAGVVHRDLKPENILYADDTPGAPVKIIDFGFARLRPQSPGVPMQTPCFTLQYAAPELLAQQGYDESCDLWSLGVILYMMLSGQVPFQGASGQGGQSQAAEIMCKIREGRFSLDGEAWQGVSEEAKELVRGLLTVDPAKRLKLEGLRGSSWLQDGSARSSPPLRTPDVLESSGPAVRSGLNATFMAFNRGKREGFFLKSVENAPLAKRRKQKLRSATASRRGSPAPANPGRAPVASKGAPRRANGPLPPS
Chain of MAP2K5 (human) (Q13163 whole entry, looked up): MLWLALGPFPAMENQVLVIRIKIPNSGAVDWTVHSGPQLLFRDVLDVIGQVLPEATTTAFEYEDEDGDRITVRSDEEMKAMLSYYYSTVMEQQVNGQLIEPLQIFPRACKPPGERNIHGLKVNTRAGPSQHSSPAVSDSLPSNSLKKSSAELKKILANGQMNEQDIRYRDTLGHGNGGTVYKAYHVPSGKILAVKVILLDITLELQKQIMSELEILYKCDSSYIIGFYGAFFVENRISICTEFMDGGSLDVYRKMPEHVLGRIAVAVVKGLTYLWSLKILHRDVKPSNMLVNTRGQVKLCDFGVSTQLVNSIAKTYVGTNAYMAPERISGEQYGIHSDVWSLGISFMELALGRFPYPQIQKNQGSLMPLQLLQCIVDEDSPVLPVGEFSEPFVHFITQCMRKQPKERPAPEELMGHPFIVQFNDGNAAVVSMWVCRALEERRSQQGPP
Chain of NUAK2 (human) (Q9H093 whole entry, looked up): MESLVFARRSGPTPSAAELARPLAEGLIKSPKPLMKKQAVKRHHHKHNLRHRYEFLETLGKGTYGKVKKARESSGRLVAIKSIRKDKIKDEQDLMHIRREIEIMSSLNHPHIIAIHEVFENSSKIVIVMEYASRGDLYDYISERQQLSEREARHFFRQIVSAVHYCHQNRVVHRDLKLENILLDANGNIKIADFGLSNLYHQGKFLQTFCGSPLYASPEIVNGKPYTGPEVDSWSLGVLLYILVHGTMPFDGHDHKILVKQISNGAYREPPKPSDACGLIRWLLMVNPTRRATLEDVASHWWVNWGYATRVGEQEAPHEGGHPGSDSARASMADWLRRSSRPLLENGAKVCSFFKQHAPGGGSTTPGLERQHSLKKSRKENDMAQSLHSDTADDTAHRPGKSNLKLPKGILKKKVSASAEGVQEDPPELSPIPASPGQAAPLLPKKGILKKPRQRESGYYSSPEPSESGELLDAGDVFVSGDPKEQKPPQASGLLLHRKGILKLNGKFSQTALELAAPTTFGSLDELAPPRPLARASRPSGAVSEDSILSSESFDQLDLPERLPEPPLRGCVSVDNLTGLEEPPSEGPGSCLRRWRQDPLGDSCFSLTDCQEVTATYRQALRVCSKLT
Chain of AKT3 (human) (Q9Y243 whole entry, looked up): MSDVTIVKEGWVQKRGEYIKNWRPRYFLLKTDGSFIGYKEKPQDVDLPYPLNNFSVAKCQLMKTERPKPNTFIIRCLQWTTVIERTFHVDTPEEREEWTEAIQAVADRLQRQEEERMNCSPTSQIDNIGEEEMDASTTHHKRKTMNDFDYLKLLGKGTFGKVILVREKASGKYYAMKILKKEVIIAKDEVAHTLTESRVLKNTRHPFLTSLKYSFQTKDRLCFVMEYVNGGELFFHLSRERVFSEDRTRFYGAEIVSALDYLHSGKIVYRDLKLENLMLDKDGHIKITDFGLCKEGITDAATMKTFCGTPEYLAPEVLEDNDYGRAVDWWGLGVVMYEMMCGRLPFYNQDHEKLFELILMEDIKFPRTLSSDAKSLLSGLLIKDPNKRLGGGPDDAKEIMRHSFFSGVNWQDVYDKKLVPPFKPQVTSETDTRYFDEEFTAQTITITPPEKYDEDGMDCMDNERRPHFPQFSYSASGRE

Row | Structure (SMILES) | kinase still bound, per cent of control (PIK3CB (human)) [%] | kinase still bound, per cent of control (ROCK1 (human)) [%] | kinase still bound, per cent of control (TBK1 (human)) [%] | kinase still bound, per cent of control (GRK7 (human)) [%] | kinase still bound, per cent of control (EPHA2 (human)) [%] | kinase still bound, per cent of control (RPS6KA6 KD2 (human)) [%] | kinase still bound, per cent of control (SNRK (human)) [%] | kinase still bound, per cent of control (ULK1 (human)) [%] | kinase still bound, per cent of control (STK32C (human)) [%] | kinase still bound, per cent of control (MAP2K7 (human)) [%] | kinase still bound, per cent of control (PDGFRB (human)) [%] | kinase still bound, per cent of control (TTK (human)) [%] | kinase still bound, per cent of control (EPHA7 (human)) [%] | kinase still bound, per cent of control (MAP2K5 (human)) [%] | kinase still bound, per cent of control (LATS2 (human)) [%] | kinase still bound, per cent of control (STK16 (human)) [%] | kinase still bound, per cent of control (MAP2K4 (human)) [%] | kinase still bound, per cent of control (ULK2 (human)) [%] | kinase still bound, per cent of control (PHKG1 (human)) [%] | kinase still bound, per cent of control (BRAF (human)) [%] | also measured
1 | CCN1CCN(C(=O)Cc2ccc(Nc3ncc(F)c(Nc4ccc(C(=O)Nc5ccccc5Cl)cc4)n3)cc2)CC1 | 83 | 81 | 5.6 | 71 | 51 | 62 | 89 | 28 | 77 | 100 | 0.15 | 18 | 55 | 9.8 | 100 | 1.6 | 49 | 77 | 82 | 70 | kinase still bound, per cent of control (TEC (human)): 42%; kinase still bound, per cent of control [1]: 36%; kinase still bound, per cent of control (PIK3C2B (human)): 93%; kinase still bound, per cent of control (PIP5K1A (human)): 0%; kinase still bound, per cent of control (CPK1 (P.falciparum)): 29%; kinase still bound, per cent of control (TNNI3K (human)): 24%; kinase still bound, per cent of control (ACVRL1 (human)): 100%; kinase still bound, per cent of control (AKT3 (human)): 100%; kinase still bound, per cent of control (LATS1 (human)): 100%; kinase still bound, per cent of control (ABL2 (human)): 20%; kinase still bound, per cent of control (DCLK3 (human)): 80%; kinase still bound, per cent of control (NUAK2 (human)): 23%; kinase still bound, per cent of control (MAP3K11 (human)): 4.6%; kinase still bound, per cent of control (RPS6KA4 KD1 (human)): 100%; kinase still bound, per cent of control (DSTYK (human)): 71%; kinase still bound, per cent of control (EPHA5 (human)): 92%; kinase still bound, per cent of control (DYRK2 (human)): 18%; kinase still bound, per cent of control (EPHA1 (human)): 27%; kinase still bound, per cent of control (CDC42BPA (human)): 100%; kinase still bound, per cent of control (PKMYT1 (human)): 100%
2 | COc1ccc(N(C(=O)Oc2c(C)cccc2C)c2ccnc(Nc3ccc(N4CCN(C)CC4)cc3)n2)c(OC)c1 | 100 | 65 | 74 | 72 | 0 | 67 | 100 | 31 | 19 | 85 | 0 | 42 | 26 | 0.55 | 70 | 15 | 100 | 38 | 12 | 88 | kinase still bound, per cent of control (TEC (human)): 3.7%; kinase still bound, per cent of control [1]: 26%; kinase still bound, per cent of control (PIK3C2B (human)): 11%; kinase still bound, per cent of control (PIP5K1A (human)): 0.45%; kinase still bound, per cent of control (CPK1 (P.falciparum)): 5%; kinase still bound, per cent of control (TNNI3K (human)): 0%; kinase still bound, per cent of control (ACVRL1 (human)): 2.7%; kinase still bound, per cent of control (AKT3 (human)): 100%; kinase still bound, per cent of control (LATS1 (human)): 78%; kinase still bound, per cent of control (ABL2 (human)): 0.1%; kinase still bound, per cent of control (DCLK3 (human)): 100%; kinase still bound, per cent of control (NUAK2 (human)): 9.8%; kinase still bound, per cent of control (MAP3K11 (human)): 8.8%; kinase still bound, per cent of control (RPS6KA4 KD1 (human)): 100%; kinase still bound, per cent of control (DSTYK (human)): 49%; kinase still bound, per cent of control (EPHA5 (human)): 0.15%; kinase still bound, per cent of control (DYRK2 (human)): 80%; kinase still bound, per cent of control (EPHA1 (human)): 0%; kinase still bound, per cent of control (CDC42BPA (human)): 16%; kinase still bound, per cent of control (PKMYT1 (human)): 100%
